What was measured:
Tolerability in mice = type: in vivo; conditions: same strain as efficacy studies, 30 mg/kg QD PO, unpublished observations
Method: For acalabrutinib, the current clinically recommended oral dose in MCL is 100 mg twice daily (BID)[18],[19], which results in an exposure of 1111 h·ng/mL[18],[19]. There are no published data on the pharmacokinetics of acalabrutinib in mice. The compound was administered at 15 mg/kg BID in mouse xenograft tumor models, giving a total daily dose of 30 mg/kg.

[1] = design: method as in PMID 29241979; conditions: phase 2 MCL study; cited from earlier work
DB = assay: Cell viability, ATPlite; type: cell-based; conditions: Homo sapiens; DB (GCB-DLBCL), 72 h; read-out: Max response (GI %)
Method: (§1) The potency of TL-895 effects on cell viability was further examined in vitro in a panel of diffuse large B-cell lymphoma (DLBCL) and MCL cell lines, comprising ten germinal B-cell like subtype (GCB)-DLBCL cell lines, six activated B-cell like (ABC)-DLBCL cell lines, and six MCL cell lines (Horizon Discovery Inc, Cambridge MA, USA). Cells were seeded into 384-well plates (500 cells/well) and incubated (37 °C for 24 h) before treatment with varying concentrations of TL-895 for 72 h. ATP levels were analyzed using the ATPlite Luminescence Assay System (Perkin Elmer, UK). Growth inhibition and maximum response were calculated using the Chalice Analyzer (Horizon Discovery Inc).

DOHH-2 = assay: Cell viability, ATPlite; type: cell-based; conditions: Homo sapiens, DOHH-2 (GCB-DLBCL), 72 h
Method: as §1

GRANTA-519 = assay: Cell viability, ATPlite; type: cell-based; conditions: Homo sapiens; GRANTA-519 (MCL), 72 h; read-out: Max response (GI %)
Method: as §1

HT = assay: Cell viability, ATPlite; type: cell-based; conditions: Homo sapiens; HT (GCB-DLBCL), 72 h; read-out: Max response (GI %)
Method: as §1

HU-DHL-1-epst = assay: Cell viability, ATPlite; type: cell-based; conditions: Homo sapiens, HU-DHL-1-epst (GCB-DLBCL), 72 h
Method: as §1

JVM-2 = assay: Cell viability, ATPlite; type: cell-based; conditions: Homo sapiens, JVM-2 (MCL), 72 h
Method: as §1

Jeko-1 = assay: Cell viability, ATPlite; type: cell-based; conditions: Homo sapiens; Jeko-1 (MCL), 72 h; read-out: Max response (GI %)
Method: as §1

Maver-1 = assay: Cell viability, ATPlite; type: cell-based; conditions: Homo sapiens, Maver1, Maver-1 (MCL), 72 h
Method: as §1

Mino = assay: Cell viability, ATPlite; type: cell-based; conditions: Homo sapiens, Mino (MCL), 72 h
Method: as §1

OCI-Ly18 = assay: Cell viability, ATPlite; type: cell-based; conditions: Homo sapiens, OCI-Ly18 (GCB-DLBCL), 72 h
Method: as §1

OCI-Ly19 = assay: Cell viability, ATPlite; type: cell-based; conditions: Homo sapiens; OCI-Ly19 (GCB-DLBCL), 72 h; read-out: Max response (GI %)
Method: as §1

Pfeiffer = assay: Cell viability, ATPlite; type: cell-based; conditions: Homo sapiens, Pfeiffer (GCB-DLBCL), 72 h
Method: as §1

REC-1 = assay: Cell viability, ATPlite; type: cell-based; conditions: Homo sapiens, Rec1, REC-1 (MCL), 72 h
Method: as §1

SU-DHL-4-epst = assay: Cell viability, ATPlite; type: cell-based; conditions: Homo sapiens, SU-DHL-4-epst (GCB-DLBCL), 72 h
Method: as §1

SU-DHL-5-epst = assay: Cell viability, ATPlite; type: cell-based; conditions: Homo sapiens; SU-DHL-5-epst (GCB-DLBCL), 72 h; read-out: Max response (GI %)
Method: as §1

SU-DHL-8-epst = assay: Cell viability, ATPlite; type: cell-based; conditions: Homo sapiens, SU-DHL-8-epst (ABC-DLBCL), 72 h
Method: as §1

Toledo = assay: Cell viability, ATPlite; type: cell-based; conditions: Homo sapiens, Toledo (GCB-DLBCL), 72 h
Method: as §1

U-2932 = assay: Cell viability, ATPlite; type: cell-based; conditions: Homo sapiens, U2932, U-2932 (ABC-DLBCL), 72 h
Method: as §1

GCB-DLBCL cell lines = assay: Cell viability, ATPlite, GCB-DLBCL panel; type: cell-based; conditions: Homo sapiens; all GCB-DLBCL cell lines, 72 h; read-out: IC50s in GCB-DLBCL cell lines
Method: as §1

For `CC#CC(=O)N1CCC[C@H]1c1nc(-c2ccc(C(=O)Nc3ccccn3)cc2)c2c(N)nccn12` [Acalabrutinib], the Tolerability (Tolerability in mice) is listed as “no significant tolerability issues”, the “Adverse event: diarrhea” value [1] is listed as 31% and the “Adverse event: fatigue” value [1] is listed as 27%. For the same compound, the “Adverse event: headache” value [1] was 38%, the “Grade ≥ 3 adverse event: anemia” value [1] was 9% and the “Grade ≥ 3 adverse event: neutropenia” value [1] was 10%. For the same compound, the “Grade ≥ 3 adverse event: pneumonia” value [1] was 5%.
`C=CC(=O)N1CCC(F)(CNc2ncnc(N)c2-c2ccc(Oc3ccccc3)cc2)CC1` [TL-895] gave an Emax (DB) of 25%, a GI50 (DOHH-2) of 9.39 µM and an IC50 (DOHH-2) of 11.4 µM. The Emax (DOHH-2; read-out: Max response (GI %)) was 130%, the Emax (GRANTA-519) was 50% and the Emax (HT) was 17%. It also gave a GI50 (HU-DHL-1-epst) of 20.8 µM, an IC50 (HU-DHL-1-epst) of 24.9 µM and an Emax (HU-DHL-1-epst; read-out: Max response (GI %)) of 73%. The GI50 (JVM-2) was 6.81 µM, the IC50 (JVM-2) was 17.9 µM and the Emax (JVM-2; read-out: Max response (GI %)) was 135%. The Emax (Jeko-1) was 42%, the GI50 (Maver-1) was 27.5 µM and the Emax (Maver-1; read-out: Max response (GI %)) was 53%. It also gave a GI50 (Mino) of 5.58 µM, an IC50 (Mino) of 14 µM and an Emax (Mino; read-out: Max response (GI %)) of 88%. For the same compound, the GI50 (OCI-Ly18) was 18.6 µM, the IC50 (OCI-Ly18) was 22.3 µM and the Emax (OCI-Ly18; read-out: Max response (GI %)) was 68%. It also gave an Emax (OCI-Ly19) of 36%, a GI50 (Pfeiffer) of 19.6 µM and an IC50 (Pfeiffer) of 21 µM. For the same compound, the Emax (Pfeiffer; read-out: Max response (GI %)) was 99%, the GI50 (REC-1) was 4.26 µM and the IC50 (REC-1) was 13 µM. The Emax (REC-1; read-out: Max response (GI %)) was 83%, the GI50 (SU-DHL-4-epst) was 10.6 µM and the IC50 (SU-DHL-4-epst) was 11.9 µM. The Emax (SU-DHL-4-epst; read-out: Max response (GI %)) was 94%, the Emax (SU-DHL-5-epst) was 42% and the GI50 (SU-DHL-8-epst) was 23 µM. It also gave an IC50 (SU-DHL-8-epst) of 25.7 µM, an Emax (SU-DHL-8-epst; read-out: Max response (GI %)) of 62% and a GI50 (Toledo) of 3.84 µM. It also gave an IC50 (Toledo) of 5.18 µM, an Emax (Toledo; read-out: Max response (GI %)) of 195% and a GI50 (U-2932) of 1.97 µM. For the same compound, the IC50 (U-2932) was 6.6 µM, the Emax (U-2932; read-out: Max response (GI %)) was 105% and the IC50 (GCB-DLBCL cell lines) was over 5 µM.
